target: TRKA (Homo sapiens (Human), UniProt P04629); test: Isolated TRK enzyme assay (HTRF KinEASE-TK), TRKA; format: biochemical; details: read-out: Trka enzyme (IC50)
Sequence (P04629 441-796): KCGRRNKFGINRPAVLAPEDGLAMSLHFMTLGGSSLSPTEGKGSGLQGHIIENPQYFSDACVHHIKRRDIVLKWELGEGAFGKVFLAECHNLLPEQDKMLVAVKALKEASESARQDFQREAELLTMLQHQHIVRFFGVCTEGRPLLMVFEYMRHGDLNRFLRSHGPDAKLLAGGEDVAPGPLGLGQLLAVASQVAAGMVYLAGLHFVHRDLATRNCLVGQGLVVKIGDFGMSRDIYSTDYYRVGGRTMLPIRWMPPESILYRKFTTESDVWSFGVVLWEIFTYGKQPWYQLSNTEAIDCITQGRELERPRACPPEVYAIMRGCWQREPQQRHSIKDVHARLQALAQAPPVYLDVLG

Row | IC50 | Compound
1 | 110 nM | CC(C)n1ncc(CC(=O)Nc2cncc(C(=O)c3cn([C@H](C)CO)c4ncncc34)c2)c1C(F)(F)F [Example 207, N-[5-({7-[(1R)-2-hydroxy-1-methylethyl]-7H-pyrrolo[2,3-d]pyrimidin-5-yl}carbonyl)pyridin-3-yl]-2-[1-isopropyl-5-(trifluoromethyl)-1H-pyrazol-4-yl]acetamide]
2 | 129 nM | C[C@H](CO)n1cc(C(=O)c2cncc(NC(=O)Cc3ccc(C#N)cc3)c2)c2cncnc21 [Example 208, 2-(4-cyanophenyl)-N-[5-({7-[(1R)-2-hydroxy-1-methylethyl]-7H-pyrrolo[2,3-d]pyrimidin-5-yl}carbonyl)pyridin-3-yl]acetamide]
3 | 272 nM | C[C@H](CO)n1cc(C(=O)c2cncc(NC(=O)Cc3cccc(S(C)(=O)=O)c3)c2)c2cncnc21 [Example 209, N-[5-({7-[(1R)-2-hydroxy-1-methylethyl]-7H-pyrrolo[2,3-d]pyrimidin-5-yl}carbonyl)pyridin-3-yl]-2-[3-(methylsulfonyl)phenyl]acetamide]
4 | 185 nM | C[C@H](CO)n1cc(C(=O)c2cncc(NC(=O)Cc3ccc4cccnc4c3)c2)c2cncnc21 [Example 210, N-[5-({7-[(1R)-2-hydroxy-1-methylethyl]-7H-pyrrolo[2,3-d]pyrimidin-5-yl}carbonyl)pyridin-3-yl]-2-quinolin-7-ylacetamide]
5 | 83.3 nM | O=C(Cc1ccc(Cl)c(Cl)c1)Nc1cncc(C(=O)c2cn(C3COC3)c3ncncc23)c1 [Example 217, 2-(3,4-dichlorophenyl)-N-{5-[(7-oxetan-3-yl-7H-pyrrolo[2,3-d]pyrimidin-5-yl)carbonyl]pyridin-3-yl}acetamide]
6 | 1210 nM | N#Cc1ccc(CC(=O)Nc2cncc(C(=O)c3cn(C4COC4)c4ncncc34)c2)cc1 [Example 218, 2-(4-cyanophenyl)-N-{5-[(7-oxetan-3-yl-7H-pyrrolo[2,3-d]pyrimidin-5-yl)carbonyl]pyridin-3-yl}acetamide]
7 | 286 nM | O=C(Cc1ccc(Cl)cc1)Nc1cncc(C(=O)c2cn(C3COC3)c3ncncc23)c1 [Example 219, 2-(4-chlorophenyl)-N-{5-[(7-oxetan-3-yl-7H-pyrrolo[2,3-d]pyrimidin-5-yl)carbonyl]pyridin-3-yl}acetamide]
8 | 462 nM | O=C(Cc1cccc(Cl)c1)Nc1cncc(C(=O)c2cn(C3COC3)c3ncncc23)c1 [Example 220, 2-(3-chlorophenyl)-N-{5-[(7-oxetan-3-yl-7H-pyrrolo[2,3-d]pyrimidin-5-yl)carbonyl]pyridin-3-yl}acetamide]
9 | 3100 nM | N#Cc1cccc(CC(=O)Nc2cncc(C(=O)c3cn(C4COC4)c4ncncc34)c2)c1 [Example 221, 2-(3-cyanophenyl)-N-{5-[(7-oxetan-3-yl-7H-pyrrolo[2,3-d]pyrimidin-5-yl)carbonyl]pyridin-3-yl}acetamide]
10 | 692 nM | O=C(Cc1ccc2cccnc2c1)Nc1cncc(C(=O)c2cn(C3COC3)c3ncncc23)c1 [Example 222, N-{5-[(7-oxetan-3-yl-7H-pyrrolo[2,3-d]pyrimidin-5-yl)carbonyl]pyridin-3-yl}-2-quinolin-7-ylacetamide]
11 | 1660 nM | O=C(Cc1cn2cc(Cl)ccc2n1)Nc1cncc(C(=O)c2cn(C3COC3)c3ncncc23)c1 [Example 223, 2-(6-chloroimidazo[1,2-a]pyridin-2-yl)-N-{5-[(7-oxetan-3-yl-7H-pyrrolo[2,3-d]pyrimidin-5-yl)carbonyl]pyridin-3-yl}acetamide]
12 | 3100 nM | O=C(CN1Cc2ccccc2C1=O)Nc1cncc(C(=O)c2cn(C3COC3)c3ncncc23)c1 [Example 224, N-{5-[(7-oxetan-3-yl-7H-pyrrolo[2,3-d]pyrimidin-5-yl)carbonyl]pyridin-3-yl}-2-(1-oxo-1,3-dihydro-2H-isoindol-2-yl)acetamide]
13 | 27.7 nM | CC(C)(CO)n1cc(C(=O)c2cncc(NC(=O)Cc3ccc(C#N)cc3)c2)c2cncnc21 [Example 225, 2-(4-cyanophenyl)-N-(5-{[7-(2-hydroxy-1,1-dimethylethyl)-7H-pyrrolo[2,3-d]pyrimidin-5-yl]carbonyl}pyridin-3-yl)acetamide]
14 | 3.61 nM | CC(C)(CO)n1cc(C(=O)c2cncc(NC(=O)Cc3cccc(C(F)(F)F)c3)c2)c2cncnc21 [Example 226, N-(5-{[7-(2-hydroxy-1,1-dimethylethyl)-7H-pyrrolo[2,3-d]pyrimidin-5-yl]carbonyl}pyridin-3-yl)-2-[3-(trifluoromethyl)phenyl]acetamide]
15 | 12.5 nM | CC(C)c1cn(CC(=O)Nc2cncc(C(=O)c3cn(C(C)(C)CO)c4ncncc34)c2)nn1 [Example 227, N-(5-{[7-(2-hydroxy-1,1-dimethylethyl)-7H-pyrrolo[2,3-d]pyrimidin-5-yl]carbonyl}pyridin-3-yl)-2-(4-isopropyl-1H-1,2,3-triazol-1-yl)acetamide]
16 | 14.9 nM | CC(C)(CO)n1cc(C(=O)c2cncc(NC(=O)Cc3ccc4cccnc4c3)c2)c2cncnc21 [Example 228, N-(5-{[7-(2-hydroxy-1,1-dimethylethyl)-7H-pyrrolo[2,3-d]pyrimidin-5-yl]carbonyl}pyridin-3-yl)-2-quinolin-7-ylacetamide]

Row | IC50 | Compound
17 | 274 nM | CC(CO)(CO)n1cc(C(=O)c2cncc(NC(=O)Cc3ccc(C#N)cc3)c2)c2cncnc21 [Example 232, 2-(4-Cyanophenyl)-N-[5-({7-[2-hydroxy-1-(hydroxymethyl)-1-methylethyl]-7H-pyrrolo[2,3-d]pyrimidin-5-yl}carbonyl)pyridin-3-yl]acetamide]
18 | 96.5 nM | CC(CO)(CO)n1cc(C(=O)c2cncc(NC(=O)Cc3ccc4cccnc4c3)c2)c2cncnc21 [Example 233, N-[5-({7-[2-hydroxy-1-(hydroxymethyl)-1-methylethyl]-7H-pyrrolo[2,3-d]pyrimidin-5-yl}carbonyl)pyridin-3-yl]-2-quinolin-7-ylacetamide]
19 | 84.9 nM | Cc1cc(C(F)(F)F)nn1CC(=O)Nc1cncc(C(=O)c2cn(C(C)(CO)CO)c3ncncc23)c1 [Example 234, N-[5-({7-[2-hydroxy-1-(hydroxymethyl)-1-methylethyl]-7H-pyrrolo[2,3-d]pyrimidin-5-yl}carbonyl)pyridin-3-yl]-2-[5-methyl-3-(trifluoromethyl)-1H-pyrazol-1-yl]acetamide]
20 | 70.5 nM | CC(CO)(CO)n1cc(C(=O)c2cncc(NC(=O)Cc3ccc(Cl)cc3)c2)c2cncnc21 [Example 235, 2-(4-chlorophenyl)-N-[5-({7-[2-hydroxy-1-(hydroxymethyl)-1-methylethyl]-7H-pyrrolo[2,3-d]pyrimidin-5-yl}carbonyl)pyridin-3-yl]acetamide]
21 | 25.2 nM | CC(CO)(CO)n1cc(C(=O)c2cncc(NC(=O)Cc3ccc(C(F)(F)F)cc3)c2)c2cncnc21 [Example 236, N-[5-({7-[2-hydroxy-1-(hydroxymethyl)-1-methylethyl]-7H-pyrrolo[2,3-d]pyrimidin-5-yl}carbonyl)pyridin-3-yl]-2-[4-(trifluoromethyl)phenyl]acetamide]
22 | 73.9 nM | CC(CO)(CO)n1cc(C(=O)c2cncc(NC(=O)Cc3ccc(Cl)cn3)c2)c2cncnc21 [Example 237, 2-(5-chloropyridin-2-yl)-N-[5-({7-[2-hydroxy-1-(hydroxymethyl)-1-methylethyl]-7H-pyrrolo[2,3-d]pyrimidin-5-yl}carbonyl)pyridin-3-yl]acetamide]
23 | 9.36 nM | CC(CO)(CO)n1cc(C(=O)c2cncc(NC(=O)Cc3cccc(C(F)(F)F)c3)c2)c2cncnc21 [Example 238, N-[5-({7-[2-hydroxy-1-(hydroxymethyl)-1-methylethyl]-7H-pyrrolo[2,3-d]pyrimidin-5-yl}carbonyl)pyridin-3-yl]-2-[3-(trifluoromethyl)phenyl]acetamide]
24 | 22.6 nM | CC(CO)(CO)n1cc(C(=O)c2cncc(NC(=O)Cn3ccc(C(F)(F)F)n3)c2)c2cncnc21 [Example 239, N-[5-({7-[2-hydroxy-1-(hydroxymethyl)-1-methylethyl]-7H-pyrrolo[2,3-d]pyrimidin-5-yl}carbonyl)pyridin-3-yl]-2-[3-(trifluoromethyl)-1H-pyrazol-1-yl]acetamide]
25 | 19.2 nM | CC(C)n1cc(C(=O)c2cncc(NC(=O)Cn3cc(C(F)(F)F)nn3)c2)c2cnc(N)nc21 [Example 240, N-{5-[(2-amino-7-isopropyl-7H-pyrrolo[2,3-d]pyrimidin-5-yl)carbonyl]pyridin-3-yl}-2-[4-(trifluoromethyl)-1H-1,2,3-triazol-1-yl]acetamide]
26 | 45.3 nM | CC(C)n1cc(C(=O)c2cncc(NC(=O)Cc3ccc(C#N)cc3)c2)c2cnc(N)nc21 [Example 241, N-{5-[(2-amino-7-isopropyl-7H-pyrrolo[2,3-d]pyrimidin-5-yl)carbonyl]pyridin-3-yl}-2-(4-cyanophenyl)acetamide]
27 | 8.71 nM | CC(C)n1cc(C(=O)c2cncc(NC(=O)Cc3ccc(Cl)cn3)c2)c2cnc(N)nc21 [Example 242, N-{5-[(2-amino-7-isopropyl-7H-pyrrolo[2,3-d]pyrimidin-5-yl)carbonyl]pyridin-3-yl}-2-(5-chloropyridin-2-yl)acetamide]
28 | 38.4 nM | CC(C)n1cc(C(=O)c2cncc(NC(=O)Cc3ccc(F)cn3)c2)c2cnc(N)nc21 [Example 243, N-{5-[(2-amino-7-isopropyl-7H-pyrrolo[2,3-d]pyrimidin-5-yl)carbonyl]pyridin-3-yl}-2-(5-fluoropyridin-2-yl)acetamide]
29 | 4.69 nM | CC(C)n1cc(C(=O)c2cncc(NC(=O)Cc3ccc(C(F)(F)F)cc3)c2)c2cnc(N)nc21 [Example 244, N-{5-[(2-amino-7-isopropyl-7H-pyrrolo[2,3-d]pyrimidin-5-yl)carbonyl]pyridin-3-yl}-2-[4-(trifluoromethyl)phenyl]acetamide]
30 | 4.7 nM | CC(C)n1cc(C(=O)c2cncc(NC(=O)Cc3cccc(C(F)(F)F)c3)c2)c2cnc(N)nc21 [Example 245, N-{5-[(2-amino-7-isopropyl-7H-pyrrolo[2,3-d]pyrimidin-5-yl)carbonyl]pyridin-3-yl}-2-[3-(trifluoromethyl)phenyl]acetamide]
31 | 35.6 nM | CC(C)n1cc(C(=O)c2cncc(NC(=O)Cc3ccc4ocnc4c3)c2)c2cnc(N)nc21 [Example 246, N-{5-[(2-amino-7-isopropyl-7H-pyrrolo[2,3-d]pyrimidin-5-yl)carbonyl]pyridin-3-yl}-2-(1,3-benzoxazol-5-yl)acetamide]
